# Values quoted from earlier work in publication PMC2766265 (Tetrahedron, 2008).
Structure (SMILES),agonist activity at the κ-opioid receptor (κ-opioid receptor),binding to any of the opioid-receptor subtypes (opioid-receptor subtypes)
"COC(=O)[C@@H]1C[C@H](OC(C)=O)C(=O)[C@H]2[C@@]1(C)CC[C@H]1C(=O)O[C@H](c3ccoc3)C[C@]21C [Compound 1, Salvinorin A]",potent and selective agonist,–
"C[C@]12C[C@H](c3ccoc3)OC(=O)[C@H]1CC[C@@]13COC(=O)[C@@H]1C=CC[C@H]23 [Compound 2, salviarin]",–,none of these diterpenes showed significant binding
"CC(=O)OC1C=CC2C(=O)OCC23CCC2C(=O)OC(c4ccoc4)C(OC(C)=O)C2(C)C13 (stereo not drawn) [Compound 3, splendidin]",–,none of these diterpenes showed significant binding
